Results from the NIST ThermoML archive (doi:10.1021/je025579q).

Experiments:
[1] = 298.15 K; 101.33 kPa; Liquid
[2] = xn = mol fraction of the nth substance listed; details: 298.15 K, 101.3 kPa, Liquid; for speed of sound: Sing-around technique in a fixed-path interferometer

COC(C)(C)C [2-methoxy-2-methylpropane]
[1]
Details	mass density [kg/m3]	speed of sound [m/s]
–	735.35	1036.1

CCCCO [butan-1-ol] + CCCCCCCCCC
[2], x1 = 1
Details	mass density [kg/m3]	speed of sound [m/s]
–	805.67	1239.8

CCCCCCCCCC [decane] + CCCCO
[2]
Details	mass density [kg/m3]	speed of sound [m/s]
x2 = 0	726.09	1234.7
x2 = 0.04848	727.38	1230.8
x2 = 0.09526	728.99	1228.9
x2 = 0.2045	733.33	1225.6
x2 = 0.2974	737.65	1223.9
x2 = 0.3949	742.88	1222.7
x2 = 0.4455	745.96	1222.5
x2 = 0.4928	749.07	1222.4
x2 = 0.5579	753.72	1222.7
x2 = 0.5937	756.5	1222.9
x2 = 0.7031	766.17	1224.6
x2 = 0.7901	775.35	1226.7
x2 = 0.8707	785.36	1230.4
x2 = 0.948	796.76	1235.3

CCCCCCCCCC [decane]
[1]
Details	mass density [kg/m3]	speed of sound [m/s]
–	726.09	1234.7

CCCCO [butan-1-ol]
[1]
Details	mass density [kg/m3]	speed of sound [m/s]
–	805.67	1239.8
